Test results from patent US6737383B1, “Herbicidal oxadiazolidines” (priority 1999, dated 2004).

Tests used:
crabgrass = assay: Test B pre/postemergence crabgrass; type: in vivo, Digitaria sanguinalis
Summary of the method: (§1)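 Response is a visual 0-to-10 score relative to untreated plants, where 0 means no effect and 10 means complete control, taken twelve to sixteen days after application. Treatments went onto soil at planting and onto foliage of 1- to 4-leaf plants, using a surfactant-containing non-phytotoxic solvent.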

soybean = assay: Test B pre/postemergence soybean; type: in vivo, Glycine max
Summary of the method: as §1

bedstraw = assay: Test B pre/postemergence bedstraw; type: in vivo, Galium aparine; details: Preemergence
Summary of the method: as §1

pigweed = assay: Test B pre/postemergence pigweed; type: in vivo, Amaranthus retroflexus
Summary of the method: as §1

wild oat = assay: Test B pre/postemergence wild oat; type: in vivo, Avena fatua
Summary of the method: as §1

blackgrass = assay: Test B pre/postemergence blackgrass; type: in vivo, Alopecurus myosuroides
Summary of the method: as §1

corn = assay: Test B pre/postemergence corn; type: in vivo, Zea mays
Summary of the method: as §1

purple nutsedge = assay: Test B pre/postemergence purple nutsedge; type: in vivo, Cyperus rotundus
Summary of the method: as §1

giant foxtail = assay: Test B pre/postemergence giant foxtail; type: in vivo, Setaria faberii
Summary of the method: as §1

cocklebur = assay: Test B pre/postemergence cocklebur; type: in vivo, Xanthium strumarium
Summary of the method: as §1

smallflower flatsedge = assay: Test B flood test smallflower flatsedge; type: in vivo, Cyperus difformis
Summary of the method: (§2)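 Each value is a visual injury score relative to controls, with 10 meaning complete control and 0 no effect. Evaluation took place twelve to sixteen days after the 2-leaf-stage plants were treated and kept in the greenhouse.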

sugar beet = assay: Test B pre/postemergence sugar beet; type: in vivo, Beta vulgaris
Summary of the method: as §1

rice = assay: Test B flood test rice; type: in vivo, Oryza sativa
Summary of the method: as §2

bamyardgrass = assay: Test B flood test barnyardgrass; type: in vivo, Echinochloa crus-galli
Summary of the method: as §2

velvetleaf = assay: Test B pre/postemergence velvetleaf; type: in vivo, Abutilon theophrasti
Summary of the method: as §1

surinam grass = assay: Test B pre/postemergence surinam grass; type: in vivo, Brachiaria decumbens
Summary of the method: as §1

[1] = Postemergence, Rate 62 g/ha, scale 0 to 10, 0 is no effect, 10 is complete control
[2] = Postemergence, Rate 125 g/ha, scale of 0 to 10 where 0 is no effect and 10 is complete control
[3] = Postemergence, Rate 250 g/ha, scale of 0 to 10, 0 is no effect, 10 is complete control
[4] = Postemergence, Rate 500 g/ha, scale of 0 to 10 where 0 is no effect and 10 is complete control
[5] = Preemergence, Rate 62 g/ha, scale 0 to 10 (0 no effect, 10 complete control)
[6] = Preemergence, Rate 125 g/ha, scale of 0 to 10 where 0 is no effect and 10 is complete control
[7] = Preemergence, Rate 250 g/ha, scale 0 to 10 (0 no effect, 10 complete control)
[8] = Preemergence, Rate 500 g/ha, scale of 0 to 10 where 0 is no effect and 10 is complete control
[9] = Rate 62 g/ha, flood test species, Pre-emergence, visual evaluation after twelve to sixteen days
[10] = Rate 125 g/ha, under heading Pre-emergence, flood test species, visual evaluation after twelve to sixteen days
[11] = Rate 250 g/ha, Pre-emergence (flood test species), scale 0 to 10, 0 is no effect, 10 is complete control
[12] = Rate 500 g/ha, Pre-emergence section of Table B, 0 to 10 scale (0 no effect, 10 complete control)

Compound: COCCn1c(=O)on(C(=O)N(c2ccc(F)cc2)C(C)C)c1=O [Compound 627]
- Plant response rating, Crabgrass (crabgrass; [1]): 8
- Plant response rating, Crabgrass (crabgrass; [2]): 8
- Crabgrass plant response rating (crabgrass; [3]): 9
- Plant response rating, Crabgrass (crabgrass; [4]): 9
- Crabgrass plant response rating (crabgrass; [5]): 7
- Crabgrass plant response rating (crabgrass; [6]): 8
- Plant response rating, Crabgrass (crabgrass; [7]): 9
- Plant response rating, Crabgrass (crabgrass; [8]): 9
- Plant response rating, Soybean (soybean; [1]): 2
- Plant response rating, Soybean (soybean; [2]): 4
- Soybean plant response rating (soybean; [3]): 4
- Soybean plant response rating (soybean; [5]): 0
- Soybean plant response rating (soybean; [6]): 0
- Plant response rating, Soybean (soybean; [7]): 0
- Plant response rating, Soybean (soybean; [8]): 5
- Bedstraw plant response rating (bedstraw; Rate 62 g/ha, scale 0 to 10 (0 no effect, 10 complete control)): 2
- Bedstraw plant response rating (bedstraw; Rate 125 g/ha, scale of 0 to 10 where 0 is no effect and 10 is complete control): 2
- Plant response rating, Bedstraw (bedstraw; Rate 250 g/ha, scale 0 to 10 (0 no effect, 10 complete control)): 8
- Plant response rating, Bedstraw (bedstraw; Rate 500 g/ha, scale of 0 to 10 where 0 is no effect and 10 is complete control): 8
- Plant response rating, Redroot pigweed (pigweed; [1]): 2
- Plant response rating, Redroot pigweed (pigweed; [2]): 3
- Redroot pigweed plant response rating (pigweed; [3]): 6
- Redroot pigweed plant response rating (pigweed; [5]): 9
- Redroot pigweed plant response rating (pigweed; [6]): 9
- Plant response rating, Redroot pigweed (pigweed; [7]): 10
- Plant response rating, Redroot pigweed (pigweed; [8]): 10
- Plant response rating, Wild oats (wild oat; [1]): 0
- Plant response rating, Wild oats (wild oat; [2]): 2
- Wild oats plant response rating (wild oat; [3]): 6
- Wild oats plant response rating (wild oat; [5]): 0
- Wild oats plant response rating (wild oat; [6]): 3
- Plant response rating, Wild oats (wild oat; [7]): 5
- Plant response rating, Wild oats (wild oat; [8]): 5
- Plant response rating, Blackgrass (blackgrass; [1]): 8
- Plant response rating, Blackgrass (blackgrass; [2]): 8
- Blackgrass plant response rating (blackgrass; [3]): 9
- Plant response rating, Blackgrass (blackgrass; [4]): 9
- Blackgrass plant response rating (blackgrass; [5]): 8
- Blackgrass plant response rating (blackgrass; [6]): 8
- Plant response rating, Blackgrass (blackgrass; [7]): 9
- Plant response rating, Blackgrass (blackgrass; [8]): 10
- Plant response rating, Corn (corn; [1]): 0
- Plant response rating, Corn (corn; [2]): 3
- Corn plant response rating (corn; [3]): 7
- Plant response rating, Corn (corn; [4]): 8
- Corn plant response rating (corn; [5]): 3
- Corn plant response rating (corn; [6]): 4
- Plant response rating, Corn (corn; [7]): 6
- Plant response rating, Corn (corn; [8]): 9
- Plant response rating, Nutsedge (purple nutsedge; [1]): 3
- Nutsedge plant response rating (purple nutsedge; [3]): 6
- Nutsedge plant response rating (purple nutsedge; [5]): 7
- Nutsedge plant response rating (purple nutsedge; [6]): 7
- Plant response rating, Nutsedge (purple nutsedge; [7]): 7
- Plant response rating, Nutsedge (purple nutsedge; [8]): 10
- Plant response rating, Giant foxtail (giant foxtail; [1]): 9
- Giant foxtail plant response rating (giant foxtail; [3]): 9
- Plant response rating, Giant foxtail (giant foxtail; [4]): 9
- Giant foxtail plant response rating (giant foxtail; [5]): 9
- Giant foxtail plant response rating (giant foxtail; [6]): 10
- Plant response rating, Giant foxtail (giant foxtail; [7]): 10
- Plant response rating, Giant foxtail (giant foxtail; [8]): 10
- Plant response rating, Cocklebur (cocklebur; [1]): 0
- Plant response rating, Cocklebur (cocklebur; [2]): 0
- Cocklebur plant response rating (cocklebur; [3]): 0
- Plant response rating, Cocklebur (cocklebur; [4]): 3
- Cocklebur plant response rating (cocklebur; [5]): 6
- Cocklebur plant response rating (cocklebur; [6]): 6
- Plant response rating, Cocklebur (cocklebur; [7]): 6
- Plant response rating, Cocklebur (cocklebur; [8]): 7
- Plant response rating, S. Flatsedge (0 to 10 scale, 0 is no effect, 10 is complete control) (smallflower flatsedge; [9]): 0
- S. Flatsedge plant response rating (0 to 10 scale, 0 is no effect, 10 is complete control) (smallflower flatsedge; [10]): 0
- S. Flatsedge plant response rating (smallflower flatsedge; [11]): 0
- S. Flatsedge plant response rating (smallflower flatsedge; [12]): 3
- Plant response rating, Sugarbeets (sugar beet; [1]): 0
- Plant response rating, Sugarbeets (sugar beet; [2]): 0
- Sugarbeets plant response rating (sugar beet; [3]): 0
- Sugarbeets plant response rating (sugar beet; [5]): 5
- Sugarbeets plant response rating (sugar beet; [6]): 4
- Plant response rating, Sugarbeets (sugar beet; [7]): 8
- Plant response rating, Sugarbeets (sugar beet; [8]): 9
- Plant response rating, Rice (0 to 10 scale, 0 is no effect, 10 is complete control) (rice; [9]): 0
- Rice plant response rating (0 to 10 scale, 0 is no effect, 10 is complete control) (rice; [10]): 0
- Rice plant response rating (rice; [11]): 0
- Rice plant response rating (rice; [12]): 0
- Plant response rating, Barnyardgrass (0 to 10 scale, 0 is no effect, 10 is complete control) (bamyardgrass; [9]): 0
- Barnyardgrass plant response rating (0 to 10 scale, 0 is no effect, 10 is complete control) (bamyardgrass; [10]): 0
- Barnyardgrass plant response rating (bamyardgrass; [11]): 0
- Barnyardgrass plant response rating (bamyardgrass; [12]): 8
- Plant response rating, Velvetleaf (velvetleaf; [1]): 3
- Plant response rating, Velvetleaf (velvetleaf; [2]): 4
- Velvetleaf plant response rating (velvetleaf; [3]): 8
- Velvetleaf plant response rating (velvetleaf; [5]): 7
- Velvetleaf plant response rating (velvetleaf; [6]): 8
- Plant response rating, Velvetleaf (velvetleaf; [7]): 10
- Plant response rating, Velvetleaf (velvetleaf; [8]): 10
- Plant response rating, B. signalgrass (surinam grass; [1]): 3
- Plant response rating, B. signalgrass (surinam grass; [2]): 7
- B. signalgrass plant response rating (surinam grass; [3]): 7
- Plant response rating, B. signalgrass (surinam grass; [4]): 8
- B. signalgrass plant response rating (surinam grass; [5]): 5
- B. signalgrass plant response rating (surinam grass; [6]): 5
- Plant response rating, B. signalgrass (surinam grass; [7]): 8
- Plant response rating, B. signalgrass (surinam grass; [8]): 9
